The test system of the test is HeLa-Kyoto cells. Nature of the test: contact-dependent cell-to-cell DiD organelle transfer, DiD-stained/unstained 1:400 co-culture, 3D confocal quantification. Conditions: 100 nM, added 2 hours after plating, cells fixed after 18 hours, 1:400 cell ratio. Type of test: cell-based. How it is done:
HeLa-Kyoto cells were cultured in DMEM:F12 supplemented with 10% fetal calf serum and 1% penicillin/streptomycin (Invitrogen Detection Technologies, Carlsbad, Calif., USA) on 24-well microscopy plates (Greiner Bio-One GmbH). Cells were maintained under humidified air supplemented with 5% CO2 at 37° C. and plated with a density of approximately 35 000 cells/cm^2. After 24 hours, 200 ng (5 μl)/ml lipid analog Vybrant® DiD Cell-Labelling solution (Invitrogen Detection Technologies, Carlsbad, Calif., USA) was added to the plated cells in culture medium, incubated at 37° C. for 20 min wherein tilted 5 times. After the incubation period, the culture medium was exchanged 4 times within 2 hours. […]
Cells were imaged with a Leica confocal SP5 in resonant scanner mode (zoom 1.7; pinhole airyl; 40× 1.25NA oil immersion objective; 512×512 pixel; z-distance 1.01 μm, line-average 16; offset −1; gain 900-1000V. For the DiD-channel laser power was adjusted for each experiment to a strength resulting in approximately half a cell diameter of out-of-detection range data for average donor cells in order to quantify the transferred DiD in the surrounding cells, present in much lower quantities. For all other channels, the laser power was adjusted to few out-of-detection range pixels at the upper end of the scale. […]

Consider `C=C1[C@@H](C)[C@H]2[C@H](Cc3ccccc3)NC(=O)[C@]23[C@H](OC(C)=O)/C=C/[C@@](C)(O)C(=O)[C@@H](C)C/C=C/[C@H]3[C@@H]1O` [Cytochalasin D], for which the “contact-dependent cell-to-cell DiD transfer (integrated intensity of DiD signal inside acceptor cells) compared to control” value is listed as “substantially inhibited”.

Values taken from US20150153326A1, “QUANTITATIVE ANALYSIS OF CONTACT-DEPENDENT CELL-TO-CELL TRANSFER AND DISEASE TRANSMISSION” (Bergen Teknologioverforing AS, BTO, priority 2013, published 2015).
